The numbers were not newly measured in patent publication US5231002A, “Synthetic SCM-active cancer recognition peptides” (priority 1990, dated 1993), which cites them from elsewhere.

Data set [1] relates to potentially SCM-responding lymphocytes from donors with malignant diseases.
In data set [2] the test system is lymphocytes from multiple sclerosis. To be noted: lymphocytes from multiple sclerosis patients.

For CaBP, the “effectiveness as cancer-associated antigen in the SCM test” value in data set [1] (known cancer-associated antigens) is on record as “effective in the SCM test”. Besides, the “time until response of lymphocytes is lost after surgical removal of malignancy” value in data set [1] (malignancies of breast or colon surgically removed) was not above 24 h. Moreover, the “response in the SCM test (in words)” value in data set [2] is recorded as “do not respond”.
